Laboratory results taken from ChEMBL document CHEMBL5241127, “Design, synthesis and biological evaluation of novel 9-N-substituted-13-alkylberberine derivatives from Chinese medicine as anti-hepatocellular carcinoma agents” (Bioorg Med Chem, 2023).

Tests used:
HepG2 [1] = experiment: Antiproliferative activity against human HepG2 cells assessed as inhibition of cell growth incubated for 72 hrs by MTT assay; format: functional, cell-based; conditions: HepG2, 72 h
[2] = Antiproliferative activity against human LX2 cells assessed as inhibition of cell growth incubated for 72 hrs by MTT assay; format: functional, cell-based; conditions: LX-2, 72 h
Huh-7 = experiment: Antiproliferative activity against human Huh-7 cells assessed as inhibition of cell growth incubated for 72 hrs by MTT assay; format: functional, cell-based; conditions: Huh-7, 72 h
SK-HEP1 = experiment: Antiproliferative activity against human SK-HEP1 cells assessed as inhibition of cell growth incubated for 72 hrs by MTT assay; format: functional, cell-based; conditions: SK-HEP1, 72 h
DNA = experiment: Binding affinity to duplex DNA (unknown origin) using fluorescent tagged F10T model assessed as stabilization by measuring change in melting temperature at 2 uM by fluorescence based analysis; format: nucleic-acid assay
Hep 3B2 = experiment: Antiproliferative activity against human Hep3B cells assessed as inhibition of cell growth incubated for 72 hrs by MTT assay; format: functional, cell-based
HepG2 [3] = experiment: Antiproliferative activity against cisplatin-resistant human HepG2 cells assessed as inhibition of cell growth incubated for 72 hrs by MTT assay; format: functional, cell-based; conditions: HepG2, 72 h
H22 = experiment: Antitumor activity against […] xenografted in ICR mouse assessed as inhibition of tumor growth at 20 mg/kg, iv administered for 21 days and measured every 2 days relative to control; format: functional; conditions: H22, 504 h, time 21 day, read-out: TGI
Quadruplex DNA [4] = experiment: Binding affinity to c-MYC G4-quadruplex DNA (unknown origin) using fluorescent tagged FPu18T model assessed as stabilization by measuring change in melting temperature at 2 uM by fluorescence based analysis; format: nucleic-acid assay
Quadruplex DNA [5] = experiment: Binding affinity to c-MYC G4-quadruplex DNA (unknown origin) using fluorescent tagged FPu18T model assessed as stabilization by measuring change in melting temperature at 2 uM incubated in presence of non-fluorescent ds26 DNA by fluorescence based analysis; format: nucleic-acid assay

SMILES	IC50 (HepG2 [1]) [µM]	ΔTm (DNA) [°C]	ΔTm (Quadruplex DNA [4]) [°C]	other results
CCCCCCCCCCc1c2[n+](cc3c(NCCO)c(OC)ccc13)CCc1cc3c(cc1-2)OCO3	2.03			
CCCCCCCCc1c2[n+](cc3c(NCCN)c(OC)ccc13)CCc1cc3c(cc1-2)OCO3	8.61			
CCCCCCc1c2[n+](cc3c(NCCN(C)C)c(OC)ccc13)CCc1cc3c(cc1-2)OCO3	2.42			
CCCCCCCCc1c2[n+](cc3c(NCCCCN)c(OC)ccc13)CCc1cc3c(cc1-2)OCO3	5.17			
COc1ccc2cc3[n+](cc2c1OC)CCc1cc2c(cc1-3)OCO2 [BERBERINE]	> 50	2.1	1.6	IC50 [2]: > 50 µM; IC50 (Huh-7): > 50 µM; IC50 (SK-HEP1): > 50 µM; IC50 (Hep 3B2): > 50 µM; IC50 (HepG2 [3]): > 50 µM; inhibition in vivo at 20 mg/kg (H22): 42.3%
CCCCCCCCc1c2[n+](cc3c(NCCCN4CCOCC4)c(OC)ccc13)CCc1cc3c(cc1-2)OCO3	1.12	0.6	18.5	ΔTm (Quadruplex DNA [5]): 17.4 °C
CCCCCCCCc1c2[n+](cc3c(NCCCN)c(OC)ccc13)CCc1cc3c(cc1-2)OCO3	7.18			
CCCCCCCCc1c2[n+](c3c4c(c(OC)ccc14)N(CCN(C)C)C=C3)CCc1cc3c(cc1-2)OCO3	1.01	0.4	21.8	ΔTm (Quadruplex DNA [5]): 21.1 °C
